{
  "source": "patent US11135184B2",
  "about": "“Formulations for epidermal repair” (CLARIDEI LABORATORIES, INC., priority 2013, dated 2021)",
  "key": {"[1]": {"system": "11β-hydroxysteroid dehydrogenase", "details": "cited from earlier work"}, "[2]": {"details": "cited from earlier work"}, "[3]": {"system": "histamine-induced scratching behavior", "details": "applied to the skin of mice; cited from earlier work"}, "NF-kappaB": {"system": "NF-kappaB", "details": "histamine-stimulated skin; cited from earlier work"}, "guinea pig ileum": {"system": "guinea pig ileum", "details": "cited from earlier work"}, "[4]": {"system": "serine palmitoyltransferase", "details": "cited from earlier work"}, "atopic dry skin": {"system": "atopic dry skin", "details": "cited from earlier work"}, "[5]": {"system": "3′-5′ cyclic AMP phosphodiesterase", "details": "cited from earlier work"}, "[6]": {"system": "lymphocytic transformation", "details": "cited from earlier work"}, "[7]": {"system": "cutaneous lupus erythematosus", "experiment": "prior treatment of a patient with cutaneous lupus erythematosus", "type": "in vivo, human", "details": "one patient", "source_text": "A patient presented with a three year history of cutaneous lupus erythematosus. They had been suffering from systemic lupus erythematosus for some time before the rash that is characteristic of cutaneous lupus erythematosus appeared on their chest, arms, neck and face.\nPrior to treatment with a treatment regime utilizing the formulations of the present disclosure, this patient had been treated with several different treatment regimens representing the standard of care for cutaneous lupus erythematosus patients. […] All attempts to reduce the patient's suffering from cutaneous lupus erythematosus had brought little to no relief."}, "[8]": {"system": "ultraviolet radiation damage", "details": "in vitro model of cutaneous photoaging; cited from earlier work"}, "Δ4β-reductase": {"molecular_target": "T1, Δ4β-reductase (Homo sapiens, UniProt P51857)", "T1 sequence (P51857 1-326)": "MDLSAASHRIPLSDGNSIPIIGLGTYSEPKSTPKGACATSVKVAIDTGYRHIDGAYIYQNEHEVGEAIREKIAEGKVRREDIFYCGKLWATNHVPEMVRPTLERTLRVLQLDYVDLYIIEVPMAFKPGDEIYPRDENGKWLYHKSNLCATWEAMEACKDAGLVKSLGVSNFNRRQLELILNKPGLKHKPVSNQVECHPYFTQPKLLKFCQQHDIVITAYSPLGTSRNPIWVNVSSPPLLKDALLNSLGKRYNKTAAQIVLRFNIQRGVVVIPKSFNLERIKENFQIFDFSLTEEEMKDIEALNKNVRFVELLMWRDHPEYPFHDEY", "details": "in vitro; cited from earlier work"}, "contact dermatitis": {"system": "contact dermatitis", "details": "mice, cited from earlier work"}, "Mycobacterium smegmatis": {"system": "Mycobacterium smegmatis", "details": "in vitro; cited from earlier work"}, "Candida albicans": {"system": "Candida albicans", "details": "in vitro; cited from earlier work"}, "Staphylococcus aureus": {"system": "Staphylococcus aureus", "details": "in vitro; cited from earlier work"}},
  "data": [
    {"smiles": "CC1(C)[C@@H](OC(=O)CCC(=O)O)CC[C@]2(C)[C@H]3C(=O)C=C4[C@@H]5C[C@@](C)(C(=O)O)CC[C@]5(C)CC[C@@]4(C)[C@]3(C)CC[C@@H]12", "note": "[Carbenoxolone]", "values": [
      {"measurement": "inhibition of 11β-hydroxysteroid dehydrogenase", "setting": "[1]", "value": "inhibits"}
    ]},
    {"smiles": "O=C(O)[C@H](O)[C@@H](O)[C@H](O[C@@H]1O[C@H](CO)[C@H](O)[C@H](O)[C@H]1O)[C@H](O)CO", "note": "[Lactobionic acid, 4-O-β-galactopyranosyl-β-gluconic acid]", "values": [
      {"measurement": "pKa", "setting": "[2]", "value": 3.8}
    ]},
    {"smiles": "CCCCCCCCCCCCCCCCCC(=O)N[C@@H](CO)[C@H](O)[C@H](O)CCCCCCCCCCCCCC", "note": "[N-stearoyl-phytosphingosine, N-Stearoyl-phytosphingosine]", "values": [
      {"measurement": "histamine-induced scratching behavior", "setting": "[3]", "value": "effectively inhibited"},
      {"measurement": "activation of the transcription factor NF-kappaB", "setting": "NF-kappaB", "value": "inhibited"},
      {"measurement": "anti-histamine effects in the Magnus test", "setting": "guinea pig ileum", "value": "potent anti-histamine effects"}
    ]},
    {"smiles": "NC(=O)c1cccnc1", "note": "[Niacinamide]", "values": [
      {"measurement": "de novo synthesis of ceramides (e.g., glucosylceramide and sphingomyelin)", "setting": "[4]", "value": "stimulating"},
      {"measurement": "expression of serine palmitoyltransferase", "setting": "[4]", "value": "up-regulated"},
      {"measurement": "transepidermal water loss", "setting": "atopic dry skin; atopic dermatitis", "value": "decrease"},
      {"measurement": "moisturizer effectiveness compared with white petrolatum", "setting": "atopic dry skin; atopic dry skin", "value": "more effective moisturizer than white petrolatum"},
      {"measurement": "inhibition of 3′-5′ cyclic AMP phosphodiesterase", "setting": "[5]", "value": "Inhibit"},
      {"measurement": "antigen-induced lymphocytic transformation", "setting": "[6]", "value": "suppress"}
    ]},
    {"smiles": "CC(=O)Oc1ccccc1C(=O)O", "note": "[aspirin]", "values": [
      {"measurement": "effect on cutaneous lupus erythematosus", "setting": "[7]; orally administered", "value": "little or no effect"}
    ]},
    {"smiles": "C[C@H](CCC(=O)O)[C@H]1CC[C@H]2[C@@H]3[C@H](O)C[C@@H]4C[C@H](O)CC[C@]4(C)[C@H]3CC[C@]12C", "note": "[chenodeoxycholic acid]", "values": [
      {"measurement": "inhibition of 11β-hydroxysteroid dehydrogenase", "setting": "[1]", "value": "inhibits"}
    ]},
    {"smiles": "CCN(CC)CCCC(C)Nc1ccnc2cc(Cl)ccc12", "note": "(centres unmarked) [chloroquin]", "values": [
      {"measurement": "effect on cutaneous lupus erythematosus", "setting": "[7]; orally administered", "value": "little or no effect"}
    ]},
    {"smiles": "C[C@]12CCC(=O)C=C1CC[C@@H]1[C@@H]2C(=O)C[C@@]2(C)[C@H]1CC[C@]2(O)C(=O)CO", "note": "[cortisone]", "values": [
      {"measurement": "effect on cutaneous lupus erythematosus", "setting": "[7]; shots", "value": "little or no effect"}
    ]},
    {"smiles": "O=C1O[C@H](CO)[C@@H](O)[C@H](O)[C@H]1O", "note": "[glucono delta-lactone, Glucono delta-lactone]", "values": [
      {"measurement": "protection against ultraviolet radiation", "setting": "[8]", "value": "photoprotective activity"}
    ]},
    {"smiles": "CC1(C)[C@@H](O)CC[C@]2(C)[C@H]3C(=O)C=C4[C@@H]5C[C@@](C)(C(=O)O)CC[C@]5(C)CC[C@@]4(C)[C@]3(C)CC[C@@H]12", "note": "[glycyrrhetinic acid, 18β-glycyrrhetinic acid]", "values": [
      {"measurement": "inhibition of 11β-hydroxysteroid dehydrogenase", "setting": "[1]", "value": "inhibit"},
      {"measurement": "inhibition of Δ4β-reductase", "setting": "Δ4β-reductase", "value": "inhibit"}
    ]},
    {"smiles": "CC1(C)[C@@H](O[C@H]2O[C@H](C(=O)O)[C@@H](O)[C@H](O)[C@H]2O[C@@H]2O[C@H](C(=O)O)[C@@H](O)[C@H](O)[C@H]2O)CC[C@]2(C)[C@H]3C(=O)C=C4[C@@H]5C[C@@](C)(C(=O)O)CC[C@]5(C)CC[C@@]4(C)[C@]3(C)CC[C@@H]12", "note": "[glycyrrhizic acid, Glycyrrhizic acid]", "values": [
      {"measurement": "effect on contact dermatitis", "setting": "contact dermatitis; administered orally", "value": "ineffective"},
      {"measurement": "effectiveness against contact dermatitis compared with prednisolone", "setting": "contact dermatitis; given intraperitoneally", "value": "more effective than prednisolone"},
      {"measurement": "suppression of contact dermatitis", "setting": "contact dermatitis; given intraperitoneally", "value": "suppress"},
      {"measurement": "growth of Mycobacterium smegmatis", "setting": "Mycobacterium smegmatis", "value": "inhibit the growth"},
      {"measurement": "growth of Candida albicans", "setting": "Candida albicans", "value": "inhibit the growth"},
      {"measurement": "growth of Staphylococcus aureus", "setting": "Staphylococcus aureus", "value": "inhibit the growth"}
    ]},
    {"smiles": "CCCCCCCCCCCCCC[C@@H](O)[C@@H](O)[C@@H](N)CO", "note": "[phytosphingosine, Phytosphingosine]", "values": [
      {"measurement": "histamine-induced scratching behavior", "setting": "[3]", "value": "effectively inhibited"},
      {"measurement": "activation of the transcription factor NF-kappaB", "setting": "NF-kappaB", "value": "inhibited"},
      {"measurement": "anti-histamine effects in the Magnus test", "setting": "guinea pig ileum", "value": "potent anti-histamine effects"}
    ]},
    {"smiles": "CCN(CCO)CCCC(C)Nc1ccnc2cc(Cl)ccc12.O=S(=O)(O)O", "note": "(centres unmarked) [plaquenyl]", "values": [
      {"measurement": "effect on cutaneous lupus erythematosus", "setting": "[7]; orally administered", "value": "little or no effect"}
    ]},
    {"smiles": "C[C@]12C=CC(=O)C=C1CC[C@@H]1[C@@H]2C(=O)C[C@@]2(C)[C@H]1CC[C@]2(O)C(=O)CO", "note": "[prednisone]", "values": [
      {"measurement": "effect on cutaneous lupus erythematosus", "setting": "[7]; orally administered", "value": "little or no effect"}
    ]}
  ]
}
